Measured values taken from patent US20080255158A1, “Fungicidal Mixtures” (BASF Aktiengesellschaft, priority 2004, published 2008).

Tested on: Cochliobolus miyabeanus
Assay: Activity against brown spot of rice caused by Cochliobolus miyabeanus, protective application
Format: in vivo
Settings: individual active compound, 16 ppm in the spray liquor, rice leaves, 6 days after inoculation
Protocol: The active compounds, separately or jointly, were prepared as a stock solution comprising 0.25% by weight of active compound in acetone or DMSO. 1% by weight of the emulsifier Uniperol® EL (wetting agent having emulsifying and dispersing action based on ethoxylated alkylphenols) was added to this solution, and the mixture was appropriately diluted with water to the desired concentration.
Use example—Activity against brown spot of rice caused by Cochliobolus miyabeanus, protective application
Leaves of rice seedlings of the cultivar “Tai-Nong 67” which had been grown in pots were sprayed to runoff point with an aqueous suspension having the concentration of active compound stated below. The next day, the plants were inoculated with an aqueous spore suspension of Cochliobolus miyabeanus. The test plants were then placed in climatized chambers at 22-24° C. and 95-99% relative atmospheric humidity for 6 days. The extent of the development of infection on the leaves was then determined visually.
Evaluation is carried out by determining the infected leaf areas in percent. These percentages were converted into efficacies.
The efficacy (E) is calculated as follows using Abbot's formula: […]
The expected efficacies of the mixtures of active compounds are determined using Colby's formula [R. S. Colby, Weeds, 15, 20-22 (1967)] and are compared with the observed efficacies. […]

## CC1CCN(c2c(-c3c(F)cc(F)cc3F)c(Cl)nc3ncnn23)CC1 [compound I, 5-chloro-7-(4-methylpiperidin-1-yl)-6-(2,4,6-trifluorophenyl)[1,2,4]tri-azolo[1,5-a]pyrimidine]
  Efficacy in % of the untreated control: 54%
